Where two headings read alike, the source gives them in different places.

In assay [1] the target is LXR β LBD protein (Homo sapiens (Human), UniProt P55055). The assay is described as follows: biochemical. The format is binding.
For assay [2], the target named is Gal4 DNA binding domain fused to the LBD of LXRα in HEK293 cells (Homo sapiens (Human), UniProt Q13133). The assay is described as follows: LXR luciferase transcriptional reporter gene assay, agonist mode, LXRα. The format is cell-based. The conditions noted are these: for EC50: read-out: Cell LXRα EC50.
Assay [3] has as its target Gal4 DNA binding domain fused to the LBD of LXRβ in HEK293 cells (Homo sapiens (Human), UniProt P55055). Briefly: cell-based.
Setting [4] is: agonist mode, read-out: Cell LXRβ EC50.
The mark [5] stands for this setting: Biological Test Example 1, read-out: LXRβ Binding Ki.
Where [6] appears, read: Biological Test Example 2, agonist mode.
Setting [7] is: Biological Test Example 2, agonist mode, read-out: Cell LXRβ EC50.

Gal4 DNA binding domain fused to the LBD of LXRβ in HEK293 cells, sequence (P55055 222-460 limits assumed): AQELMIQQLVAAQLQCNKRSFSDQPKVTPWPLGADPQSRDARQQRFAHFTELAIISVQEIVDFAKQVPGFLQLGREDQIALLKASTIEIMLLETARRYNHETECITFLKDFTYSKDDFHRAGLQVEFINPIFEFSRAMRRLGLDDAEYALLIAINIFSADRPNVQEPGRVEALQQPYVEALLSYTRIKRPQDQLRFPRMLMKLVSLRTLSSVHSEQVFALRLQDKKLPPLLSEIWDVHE
LXR β LBD protein, sequence (P55055 222-460 limits assumed): as above
Gal4 DNA binding domain fused to the LBD of LXRα in HEK293 cells, sequence (Q13133 209-447): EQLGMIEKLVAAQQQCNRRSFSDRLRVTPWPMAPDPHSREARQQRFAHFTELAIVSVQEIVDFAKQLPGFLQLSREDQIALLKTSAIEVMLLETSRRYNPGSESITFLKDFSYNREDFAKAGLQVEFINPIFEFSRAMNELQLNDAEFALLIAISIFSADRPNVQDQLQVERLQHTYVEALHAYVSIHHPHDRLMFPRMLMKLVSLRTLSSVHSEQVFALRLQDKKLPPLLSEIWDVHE

Turning to `C[C@H](c1ccc(C(F)(F)F)cc1)N1CCN(c2cccc(S(C)(=O)=O)c2)C[C@@H]1c1ccccc1` (single isomer, unassigned) [46-18], the Ki in assay [1] is 0.035 µM. Besides, in assay [2], the “Cell LXRα efficacy” value was 4598 (45) % and the EC50 worked out at 4.6 µM. Moreover, in assay [3], the “Cell LXRβ efficacy” value is given as 1434 (31) % and the EC50 was 1.43 µM.

Consider `CC(F)(F)[C@H]1CC[C@@H](CN2CCN(c3cccc(S(C)(=O)=O)c3)C[C@@H]2c2ccccc2)CC1` (single isomer, unassigned) [48-28], for which, in assay [1] (read-out: LXRβ Binding Ki), the Ki was found to be 1.34 µM. The EC50 in assay [2] is > 20 µM; in assay [3] (setting [4]) it was 6.48 µM. The “Cell LXRβ efficacy” value in assay [3] (agonist mode) is recorded as 12%.

Take `CC(F)(F)[C@H]1CC[C@@H](CN2CCN(c3cccc(S(C)(=O)=O)c3)C[C@H]2c2ccccc2)CC1` (single isomer, unassigned) [48-29]: the Ki in assay [1] (read-out: LXRβ Binding Ki) is 0.378 µM. For the same compound, the “Cell LXRα efficacy” value in assay [2] is 6290 (43) %. For the same compound, the values for the EC50 in assay [2] and in assay [3] (setting [4]) were 6.29 µM and 1.51 µM, respectively. Moreover, the “Cell LXRβ efficacy” value in assay [3] (agonist mode) is on record as 20%.

For the compound `CS(=O)(=O)c1cccc(N2CCN(C[C@H]3CC[C@H](C(F)(F)F)CC3)[C@@H](c3ccccc3Cl)C2)c1` (single isomer, unassigned) [48-46], the inhibition constant (Ki) in assay [1] (setting [5]) turned out to be 0.027 µM. In assay [2], the “Cell LXRα efficacy” value is recorded as 1908 (35) % and the EC50 stood at 1.91 µM. Also, the “Cell LXRβ efficacy” value in assay [3] (setting [6]) amounted to 35%. Also, the EC50 in assay [3] (setting [7]) came to 0.91 µM.

With `CS(=O)(=O)c1cccc(N2CCN(C[C@H]3CC[C@@]4(CC3)CC4(F)F)[C@H](c3ccccc3)C2)c1` (single isomer, unassigned) [48-70], the Ki in assay [1] (setting [5]) was 0.75 µM. Moreover, in assay [2], the “Cell LXRα efficacy” value is recorded as 9091 (26) %. For the same compound, the EC50 in assay [2] is 9.09 µM; in assay [3] (setting [7]), 3.73 µM. For the same compound, the “Cell LXRβ efficacy” value in assay [3] (setting [6]) turned out to be 58%.

In the case of `CS(=O)(=O)c1cccc(N2CCN(C[C@@H]3CC[C@@H](C(F)(F)F)OC3)[C@@H](c3ccc(F)cc3)C2)c1` (single isomer, unassigned) [49-11], the Ki in assay [1] stood at 0.214 µM. For the same compound, in assay [2], the “Cell LXRα efficacy” value is recorded as 2460 (42) % and the EC50 is 2.46 µM. In assay [3], the midpoint of the response, the EC50, lay at 0.887 µM. Besides, the “Cell LXRβ efficacy” value in assay [3] (setting [6]) was 887 (21) %.

As for `CC(C)[C@@H]1CN(c2ccc(F)c(S(C)(=O)=O)c2)CCN1c1ncc(C#N)c(C(F)(F)F)n1` [7-21, (R)-2-(4-(4-fluoro-3-(methylsulfonyl)phenyl)-2-isopropylpiperazin-1-yl)-4-(trifluoromethyl)pyrimidine-5-carbonitrile], the Ki in assay [1] (read-out: LXRβ Binding Ki) turned out to be 0.009 µM. In assay [2], the “Cell LXRα efficacy” value is 549 (86) %. Moreover, the EC50 amounted to 0.549 µM in assay [2] (agonist mode) and 0.152 µM in assay [3]. Further, the “Cell LXRβ efficacy” value in assay [3] (agonist mode) is 152 (65) %.

`CCOC(=O)c1cnc(N2CCN(c3ccc(F)c(S(C)(=O)=O)c3)CC2CC(F)(F)F)nc1C` (stereo not drawn) [7-22, ethyl 2-(4-(4-fluoro-3-(methylsulfonyl)phenyl)-2-(2,2,2-trifluoroethyl)piperazin-1-yl)-4-methylpyrimidine-5-carboxylate]: in assay [1] (read-out: LXRβ Binding Ki), the Ki is 0.017 µM. Moreover, the “Cell LXRα efficacy” value in assay [2] is 1038 (43) %. The figures for the EC50 in assay [2] (agonist mode) and in assay [3] were 1.04 µM and 0.191 µM, respectively. In addition, the “Cell LXRβ efficacy” value in assay [3] (agonist mode) is 191 (31) %.

`CCOC(=O)c1cnc(N2CCN(c3ccc(F)c(S(C)(=O)=O)c3)C[C@H]2C2CC2)nc1C(F)(F)F` [9-4, ethyl (R)-2-(2-cyclopropyl-4-(4-fluoro-3-(methylsulfonyl)phenyl)piperazin-1-yl)-4-(trifluoromethyl)pyrimidine-5-carboxylate]: in assay [1] (read-out: LXRβ Binding Ki), the Ki worked out at 0.013 µM. Moreover, in assay [2], the “Cell LXRα efficacy” value is recorded as 1415 (37) %. Further, the EC50 in assay [2] (agonist mode) worked out at 1.41 µM; in assay [3] it was 0.318 µM. Moreover, the “Cell LXRβ efficacy” value in assay [3] (agonist mode) is listed as 318 (27) %.

On to `COC(=O)c1cnc(N2CCN(c3ccc(F)c(S(C)(=O)=O)c3)C[C@H]2c2ccc(F)cc2)nc1C(F)(F)F` [9-9, methyl (R)-2-(4-(4-fluoro-3-(methylsulfonyl)phenyl)-2-(4-fluorophenyl)piperazin-1-yl)-4-(trifluoromethyl)pyrimidine-5-carboxylate], for which the Ki in assay [1] (read-out: LXRβ Binding Ki) was determined as 0.298 µM. In addition, in assay [2], the “Cell LXRα efficacy” value was 3041 (6) %. The values for the EC50 in assay [2] (agonist mode) and in assay [3] were 3.04 µM and 0.78 µM, respectively. For the same compound, the “Cell LXRβ efficacy” value in assay [3] (agonist mode) was 780 (13) %.

Regarding `Cc1nc(N2CCN(c3ccc(F)c(S(C)(=O)=O)c3)CC2CC(F)(F)F)ncc1C(C)(C)O` (stereo not drawn) [10-6, 2-(2-(4-(4-fluoro-3-(methylsulfonyl)phenyl)-2-(2,2,2-trifluoroethyl)piperazin-1-yl)-4-methylpyrimidin-5-yl)propan-2-ol], the Ki in assay [1] (read-out: LXRβ Binding Ki) is 0.862 µM. In addition, the “Cell LXRα efficacy” value in assay [2] is given as 9158 (22) %. In addition, the figures for the EC50 in assay [2] (agonist mode) and in assay [3] were 9.16 µM and 1.31 µM, respectively.

For `CC(C)(O)c1cc(CN2CCN(c3cccc(S(C)(=O)=O)c3)C[C@@H]2c2ccccc2)ccc1C(F)(F)F` [10-13, (S)-2-(5-((4-(3-(methylsulfonyl)phenyl)-2-phenylpiperazin-1-yl)methyl)-2-(trifluoromethyl)phenyl)propan-2-ol], the Ki in assay [1] (read-out: LXRβ Binding Ki) amounted to 0.226 µM. Besides, the EC50 in assay [2] (agonist mode) and in assay [3] was > 20 µM in each case.

In assay [1], `CNS(=O)(=O)c1cc(N2CCN(c3ncc(C(C)=O)c(C(F)(F)F)n3)[C@H](C(C)C)C2)ccc1F` [13-2, (R)-5-(4-(5-acetyl-4-(trifluoromethyl)pyrimidin-2-yl)-3-isopropylpiperazin-1-yl)-2-fluoro-N-methylbenzenesulfonamide] had a Ki of 0.003 µM. In addition, in assay [2], the “Cell LXRα efficacy” value is on record as 290 (73) % and the EC50 is 0.29 µM. The EC50 in assay [3] is 0.033 µM. For the same compound, the “Cell LXRβ efficacy” value in assay [3] (agonist mode) is listed as 33 (58) %.

Take `CC(=O)c1cnc(N2CCN(c3ccc(F)c(S(C)(=O)=O)c3)C[C@H]2c2ccc(F)cc2)nc1C(F)(F)F` [13-3, (R)-1-(2-(4-(4-fluoro-3-(methylsulfonyl)phenyl)-2-(4-fluorophenyl)piperazin-1-yl)-4-(trifluoromethyl)pyrimidin-5-yl)ethan-1-one]: in assay [1] (read-out: LXRβ Binding Ki), the Ki turned out to be 0.088 µM. Besides, in assay [2], the “Cell LXRα efficacy” value was 2458 (21) % and the EC50 stood at 2.46 µM. Besides, the EC50 in assay [3] stood at 0.36 µM. The “Cell LXRβ efficacy” value in assay [3] (agonist mode) is 360 (18) %.

On to `CC(C)[C@@H]1CN(c2ccc(CO)c(S(C)(=O)=O)c2)CCN1c1ccc(C(F)(F)F)nc1` [Cpd No 20-4, (R)-(4-(3-isopropyl-4-(6-(trifluoromethyl)pyridin-3-yl)piperazin-1-yl)-2-(methylsulfonyl)phenyl)methanol], for which the Ki in assay [1] (read-out: LXRβ Binding Ki) stood at 0.02 µM. Further, it took 0.028 µM to reach a half-maximal effect in assay [3] (EC50). Further, the “Cell LXRβ efficacy” value in assay [3] (agonist mode) was 28 (105) %.

Take `Cc1nc(N2CCN(c3cccc(S(C)(=O)=O)c3)C[C@H]2C(C)C)ccc1C(F)(F)F` [Cpd No 37-2, (R)-2-isopropyl-1-(6-methyl-5-(trifluoromethyl)pyridin-2-yl)-4-(3-(methylsulfonyl)phenyl)piperazine]: the Ki in assay [1] (read-out: LXRβ Binding Ki) worked out at 0.002 µM. Moreover, in assay [3], the “Cell LXRβ efficacy” value is 49 (98) % and the EC50 amounted to 0.049 µM.

On to `CC1(C)CCC(O)(CN2CCN(c3cccc(S(C)(=O)=O)c3)C[C@@H]2c2ccccc2)CC1` [Cpd No 53-1, (S)-4,4-dimethyl-1-((4-(3-(methylsulfonyl)phenyl)-2-phenylpiperazin-1-yl)methyl)cyclohexan-1-ol], for which, in assay [1] (setting [5]), the Ki is 0.121 µM. In addition, the EC50 in assay [3] is 1.03 µM. Moreover, the “Cell LXRβ efficacy” value in assay [3] (setting [6]) is 1030 (53) %.
